Laboratory results reported in patent US9255257B2, “PmST1 mutants for chemoenzymatic synthesis of sialyl lewis X compounds” (THE REGENTS OF THE UNIVERSITY OF CALIFORNIA, priority 2011, dated 2016).

Key:
[1] = molecular target: Pasteurella multocida PmST1 double mutant E271F/R313Y of SEQ ID NO: 13 (E247F/R289Y of Δ24PmST1, SEQ ID NO: 11) (Pasteurella multocida, UniProt Q15KI8, E271F/R313Y); assay: α2-3-sialyltransferase activity, LacβMU as acceptor; assay type: biochemical; conditions: apparent, acceptor, CMP-Neu5Ac 1 mM, Tris-HCl pH 8.5, 37° C.
Procedure: (§1) To obtain the apparent kinetic parameters of LacβMU as the acceptor for the α2-3-sialyltransferase activity, the kinetic assays were performed in duplicate in reaction mixtures of 10 μL containing Tris-HCl buffer (100 mM, pH 8.5), a fixed concentration of CMP-Neu5Ac (1 mM), different concentrations of LacβMU (0.2, 0.5, 1.0, 2.0, 5.0, and 9.0 mM) and the mutant proteins (2 μg mL^−1 of E271F, 2 μg mL^−1 of R313Y, and 1.6 μg mL^−1 of E271F/R313Y). All reactions were allowed to proceed at 37° C. for 5 min (E271F), 7 min (R313Y), and 10 min (E271F/R313Y). The apparent kinetic parameters were obtained by fitting the experimental data (the average values of duplicate assay results) into the Michaelis-Menten equation using Grafit 5.0.
(§2) To obtain the apparent kinetic parameters of CMP-Neu5Ac as the donor for the α2-3-sialyltransferase activity, the kinetic assays were performed in duplicate in reaction mixtures of 10 μL containing Tris-HCl buffer (100 mM, pH 8.5), a fixed concentration of LacβMU (1 mM), different concentrations of CMP-Neu5Ac (0.1, 0.2, 0.5, 1.0, 2.0, 5.0, 10.0 and 20.0 mM) and the mutant proteins (2 μg mL^−1 of E271F, 2 μg mL^−1 of R313Y, and 1.6 μg mL^−1 of E271F/R313Y). All reactions were allowed to proceed at 37° C. for 2 min (E271F), 7 min (R313Y), and 5 min (E271F/R313Y). The apparent kinetic parameters were obtained by fitting the experimental data (the average values of duplicate assay results) into the Michaelis-Menten equation using Grafit 5.0.
(§3) All the sialidase and α2-3-sialyltransferase assays were performed in an HPLC system. Reactions were stopped by adding 10 μL of ethanol. After necessary dilutions were performed to adjust the concentrations of the fluorescent-labeled compounds, the samples were then kept on ice until aliquots of 8 μL were injected and analyzed by a Shimadzu LC-6AD system equipped with a membrane on-line degasser, a temperature control unit, and a fluorescence detector (Shimadzu RF-10AXL). A reverse-phase Premier C18 column (250×4.6 mm i.d., 5 μm particle size, Shimadzu) protected with a C18 guard column cartridge was used. The mobile phase was 25% acetonitrile. The fluorescent compounds LacβMU and Neu5Acα2-3LacβMU were detected by excitation at 325 nm and emission at 372 nm.

[2] = molecular target: Pasteurella multocida PmST1 mutant E271F of SEQ ID NO: 13 (E247F of Δ24PmST1, SEQ ID NO: 7) (Pasteurella multocida, UniProt Q15KI8, E271F); assay: as above; assay type: biochemical; conditions: apparent, acceptor, CMP-Neu5Ac 1 mM, Tris-HCl pH 8.5, 37° C.
Procedure: as §1, §2, §3

[3] = molecular target: Pasteurella multocida PmST1 mutant R313Y of SEQ ID NO: 13 (R289Y of Δ24PmST1, SEQ ID NO: 9) (Pasteurella multocida, UniProt Q15KI8, R313Y); assay: as above; assay type: biochemical; conditions: apparent, acceptor, CMP-Neu5Ac 1 mM, Tris-HCl pH 8.5, 37° C.
Procedure: as §1, §2, §3

[4] = molecular target: Pasteurella multocida α2-3-sialyltransferase 1 (PmST1), wild type (WT), SEQ ID NO: 13 (Pasteurella multocida, UniProt Q15KI8); conditions: apparent, acceptor, read-out: Km for LacβMU; cited from earlier work
[5] = molecular target: T1, Pasteurella multocida PmST1 mutant M144D of SEQ ID NO: 13 (M120D of Δ24PmST1, SEQ ID NO: 3) (Pasteurella multocida, UniProt Q15KI8, M144D); assay: α2-3-sialyltransferase activity, LacβMU as acceptor; assay type: biochemical; conditions: apparent, acceptor, CMP-Neu5Ac 1 mM, Tris-HCl pH 8.5, 37° C.
Procedure: (§4) Site-directed mutagenesis, expression and purification of PmST1 mutants. Site-directed mutagenesis was performed using the QuikChange multi-site-directed mutagenesis kit from Stratagene according to the manufacturer's protocol. The primers used were 5′-[…]-3′ (SEQ ID NO:35) for M144D; 5′-[…]a[…] -3′ (SEQ ID NO:36) for M144H; 5′-[…]-3′ (SEQ ID NO:37) for A35D; and 5′-[…]-3′ (SEQ ID NO:38) for A35H. The expression and purification of the mutants were performed as previously described for the WT PmST1 .
(§5) Kinetics of the α2-3-sialyltransferase activity of PmST1 mutants by HPLC analysis. With LacβMU as the acceptor substrate, the reactions were performed in duplicate at 37° C. for 10 min (M144D) or 4 min (M144H) in a reaction mixture (10 μL) containing Tris-HCl (100 mM, pH 8.5), an enzyme (5 μg mL^−1), and different concentrations (0.2, 0.5, 1.0, 2.0, and 5.0 mM) of LacβMU with a fixed concentration (1 mM) of CMP-Neu5Ac or different concentrations (0.2, 0.5, 1.0, 2.0, 5.0, and 10.0 mM) of CMP-Neu5Ac with a fixed concentration (1 mM) of LacβMU. With Le^xβMU as the acceptor substrate, the reactions were carried out in duplicate at 37° C. for 9 min (M144D) or 10 min (M144H) in a reaction mixture (10 μL) containing CAPSO (100 mM, pH 9.5), an enzyme (M144D, 39 μg mL^−1 or M144H, 5 μg mL^−), and various concentrations of Le^xβMU (1.0, 5.0, 10.0, 15.0, 25.0, and 35.0 mM) with a fixed concentration (1 mM) of CMP-Neu5Ac or various concentrations (0.2, 0.5, 1.0, 2.0, 5.0, 10.0, 20.0, and 40.0 mM) of CMP-Neu5Ac with a fixed concentration (1 mM) of Le^xβMU. Reactions were stopped by adding 10 μL of pre-chilled ethanol. The mixtures were incubated on ice for 30 min and centrifuged at 13,000 rpm for 5 min. The supernatants were diluted with 25% acetonitrile and kept on ice until aliquots of 8 μL were injected and analyzed by the Shimadzu LC-6AD system equipped with a membrane on-line degasser, a temperature control unit, and a fluorescence detector (Shimadzu RF-10AXL). A reverse-phase Premier C18 column (250×4.6 mm i.d., 5 μm particle size, Shimadzu) protected with a C18 guard column cartridge was used. The mobile phase was 25% acetonitrile. The fluorophore (MU)-labeled compounds were detected by excitation at 325 nm and emission at 372 nm. The apparent kinetic parameters were obtained by fitting the experimental data (the average values of duplicate assay results) into the Michaelis-Menten equation using Grafit 5.0.

[6] = molecular target: T2, Pasteurella multocida PmST1 mutant M144H of SEQ ID NO: 13 (M120H of Δ24PmST1, SEQ ID NO: 5) (Pasteurella multocida, UniProt Q15KI8, M144H); assay: as above; assay type: biochemical; conditions: apparent, acceptor, CMP-Neu5Ac 1 mM, Tris-HCl pH 8.5, 37° C.
Procedure: as §4, §5

[7] = molecular target: T1, Pasteurella multocida PmST1 mutant M144D of SEQ ID NO: 13 (M120D of Δ24PmST1, SEQ ID NO: 3); assay: α2-3-sialyltransferase activity, Le^xβMU as acceptor; assay type: biochemical; conditions: apparent, acceptor, CMP-Neu5Ac 1 mM, CAPSO pH 9.5, 37° C.
Procedure: as §4, §5

[8] = molecular target: T2, Pasteurella multocida PmST1 mutant M144H of SEQ ID NO: 13 (M120H of Δ24PmST1, SEQ ID NO: 5); assay: as above; assay type: biochemical; conditions: apparent, acceptor, CMP-Neu5Ac 1 mM, CAPSO pH 9.5, 37° C.
Procedure: as §4, §5

[9] = system: CC(=O)N[C@H]1[C@H]([C@H](O)[C@H](O)CO)O[C@](OP(=O)(O)OC[C@H]2O[C@@H](n3ccc(N)nc3=O)[C@H](O)[C@@H]2O)(C(=O)O)C[C@@H]1O; assay: purified protein, by the assay type; conditions: other: apparent, donor hydrolysis, D141A, Tris-HCl pH 8.5, 37° C., 40 min
Procedure: The reactions were stopped by adding 10 μL of pre-chilled ethanol. The mixtures were incubated on ice for 30 min and centrifuged at 13,000 rpm for 5 min. The supernatants were diluted with borate buffer (25 mM, pH 9.5) and aliquotes of 5 μL each were injected to a Beckman Coulter P/ACE™ MDQ Capillary Electrophoresis system equipped with a capillary (60 cm×75 μm i.d.) and monitored at 254 nm. The apparent kinetic parameters were obtained by fitting the experimental data (the average values of duplicate assay results) into the Michaelis-Menten equation using Grafit 5.0.

[10] = system: CC(=O)N[C@H]1[C@H]([C@H](O)[C@H](O)CO)O[C@@](O[C@H]2[C@@H](O)[C@@H](CO)O[C@@H](O[C@H]3[C@H](O)[C@@H](O)[C@H](Oc4ccc5c(C)cc(=O)oc5c4)O[C@@H]3CO)[C@@H]2O)(C(=O)O)C[C@@H]1O; assay: α2-3-sialidase activity, Neu5Acα2-3LacβMU as substrate; assay type: biochemical, Pasteurella multocida; conditions: other: apparent, D141A, MES pH 5.5, 37° C., 60 min
Procedure: Kinetic Assays. […] The apparent kinetic parameters were obtained by fitting the experimental data (the average values of duplicate assay results) into the Michaelis-Menten equation using Grafit 5.0.
as §3

Cc1cc(=O)oc2cc(O[C@@H]3O[C@H](CO)[C@@H](O[C@@H]4O[C@H](CO)[C@H](O)[C@H](O)[C@H]4O)[C@H](O)[C@H]3O)ccc12 [LacβMU, 4-methylumbelliferyl β-lactoside]
kcat (LacβMU) [1]: 17 ± 1 s⁻¹
kcat (LacβMU) [2]: 28 ± 1 s⁻¹
kcat (LacβMU) [3]: 19 ± 1 s⁻¹
Km [4]: 1400 µM
kcat (LacβMU) [5]: 22 ± 1 s⁻¹
kcat (LacβMU) [6]: 21 ± 1 s⁻¹

CC(=O)N[C@H]1[C@H](Oc2ccc3c(C)cc(=O)oc3c2)O[C@H](CO)[C@@H](O[C@@H]2O[C@H](CO)[C@H](O)[C@H](O)[C@H]2O)[C@@H]1O[C@@H]1O[C@@H](C)[C@@H](O)[C@@H](O)[C@@H]1O [Le^xβMU, 4-methylumbelliferyl β-Le^x]
kcat (Le^xβMU) [7]: 4.0 ± 0.2 s⁻¹
kcat (Le^xβMU) [8]: 8.4 ± 0.3 s⁻¹

Pasteurella multocida PmST1 mutant D141A (Pasteurella multocida; D141A)
Km [9]: 1400 ± 200 µM
Km [10]: 15000 ± 1000 µM
